Source: US20080227752A1, “Methods to Inhibit Histone Acetyltransferase Using Glycosaminoglycans” (Trustees of Boston University, priority 2004, published 2008)
“Also recorded” adds a separate entry of the source. Values belong to the compound of their own block, whether it stands above or below them.

Tests used:
p300 HAT domain [1] = target: T1, p300 HAT domain (Homo sapiens, UniProt Q09472); test: In vitro HAT activity assay, biotinylated histone H4 peptide substrate, streptavidin capture; type: biochemical; details: for HAT inhibitory activity of modified heparins: 10 ug/ml, p300, H4 peptide (FIG. 9)
T1 construct: 20 U/mL of HAT enzyme (p300 HAT domain; from Upstate); purchased Upstate (Lake Placid, N.Y.)
T1 sequence (Q09472 1287-1663 limits assumed): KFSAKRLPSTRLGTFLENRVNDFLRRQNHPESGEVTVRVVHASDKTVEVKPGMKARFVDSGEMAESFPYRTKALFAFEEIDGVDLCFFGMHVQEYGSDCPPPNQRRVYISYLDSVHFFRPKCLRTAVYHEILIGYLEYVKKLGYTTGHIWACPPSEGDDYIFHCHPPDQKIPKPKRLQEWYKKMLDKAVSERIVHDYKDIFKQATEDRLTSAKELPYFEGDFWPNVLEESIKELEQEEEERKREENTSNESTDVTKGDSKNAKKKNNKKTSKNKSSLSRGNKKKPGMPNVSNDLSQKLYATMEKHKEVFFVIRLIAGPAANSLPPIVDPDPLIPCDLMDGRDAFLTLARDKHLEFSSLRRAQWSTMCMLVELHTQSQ
Description: Biotinylated histone H4 peptide (substrate) is incubated with recombinant HAT enzyme (p300 catalytic domain) and ^3H-Acetyl-CoA, resulting in the covalent transfer of ^3H-acetate to the substrate. The ^3H-acetylated substrate can be extracted using immobilized streptavidin and counted in a scintillation counter. Thus, the amount of ^3H-acetylated substrate is a direct measure of HAT enzyme activity. Additional assays for HAT activity use core histones as the substrate and the ^3H-acetylated histone reaction products were separated from ^3H-Acetyl-CoA by membrane filtration.
Various concentrations of heparin were incubated in the presence of biotinylated histone H4 peptide, recombinant p300 catalytic domain, and [^3H]-acetyl-CoA for 1 hr at 30° C. Immobilized streptavidin was used to sequester the biotinylated substrate and was counted in a scintillation counter. Data presented are means of duplicates ±1 SE and are representative of five separate experiments. The amount of [^3H] associated with the immobilized streptavidin-biotinylated substrate in the absence of HAT enzyme (negative control) was 54.2±12.0.
HAT activity was assessed in vitro as outlined in FIG. 2. In a 1.7 mL microcentrifuge tube, 100 μL of substrate (biotinylated histone H4 peptide in 50 mM Tris, pH 7.4, 1 mM EDTA; from Pierce), 100 μL of a 5 mg/mL BSA solution (in H2O), 10.5 μL of 10×HAT buffer (500 mM Tris, pH 7.4, 10 mM EDTA), 20 U/mL of HAT enzyme (p300 HAT domain; from Upstate), and 1 μCi/mL of [^3H] Acetyl-CoA (Amersham) were mixed together and the reaction was allowed to proceed at 30° C. for 1 hour. Following this incubation, 100 μL of a 1:1 slurry of immobilized streptavidin (Pierce) pre-equilibrated in 1×HAT buffer (50 mM Tris, pH 7.4, 1 mM EDTA) was added and the sample was incubated for 30 min at RT on a rotating platform. After centrifugation at 10,000 g for 4 min, the supernatant containing the excess reactants was removed and the pellet containing the acetylated substrate bound to the immobilized streptavidin was washed 3 times with 500 μL RIPA buffer (50 mM Tris, pH 7.4, 150 mM NaCl, 1 mM EDTA, 1% NP-40, 0.5% SDC, 0.1% SDS). After the final wash, the pellet was resuspended in 500 μL 1×HAT buffer, diluted in EcoLite, and counted in a scintillation counter. Because of sample volume restrictions, reaction volumes were scaled down in some experiments.

pCAF = target: T2, pCAF (Homo sapiens, UniProt Q92831); test: Core histone acetylation filter binding HAT assay, pCAF; type: biochemical; details: core histones; for inhibitory activity on pCAF HAT: range of concentrations tested; for 50% inhibition (IC50): 30 minutes 30° C
T2 construct: purchased BIOMOL International (Plymouth Meeting, Pa.)
T2 sequence (Q92831 whole entry): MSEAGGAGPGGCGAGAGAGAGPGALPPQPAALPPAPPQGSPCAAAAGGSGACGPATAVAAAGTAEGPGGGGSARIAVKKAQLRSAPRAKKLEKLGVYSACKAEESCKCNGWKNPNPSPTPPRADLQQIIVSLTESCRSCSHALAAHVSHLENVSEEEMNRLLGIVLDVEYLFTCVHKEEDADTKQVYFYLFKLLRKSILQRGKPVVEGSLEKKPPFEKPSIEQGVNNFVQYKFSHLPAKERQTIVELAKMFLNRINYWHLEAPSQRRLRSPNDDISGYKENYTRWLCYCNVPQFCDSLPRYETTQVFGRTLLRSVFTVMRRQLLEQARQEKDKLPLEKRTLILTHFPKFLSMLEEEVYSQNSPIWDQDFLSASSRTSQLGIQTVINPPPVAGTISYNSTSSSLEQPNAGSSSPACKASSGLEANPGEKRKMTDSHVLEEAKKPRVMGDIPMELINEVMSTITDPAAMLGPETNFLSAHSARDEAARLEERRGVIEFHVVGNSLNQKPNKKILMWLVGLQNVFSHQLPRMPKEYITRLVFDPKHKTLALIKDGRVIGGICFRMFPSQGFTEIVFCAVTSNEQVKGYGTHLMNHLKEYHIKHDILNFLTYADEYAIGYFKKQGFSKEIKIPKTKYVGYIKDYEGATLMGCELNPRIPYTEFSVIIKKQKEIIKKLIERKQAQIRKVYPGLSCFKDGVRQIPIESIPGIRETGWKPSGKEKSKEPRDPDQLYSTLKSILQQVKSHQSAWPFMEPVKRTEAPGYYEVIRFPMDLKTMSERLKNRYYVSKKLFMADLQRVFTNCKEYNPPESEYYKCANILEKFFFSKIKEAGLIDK
Description: (§1) In the presence of 0.5 μCi [^3H]acetyl Co A, 10 μg core histones was incubated with either 0.5 μg pCAF (filled circles, […]) or 0.83 μg p300 HAT domain (open circles, ∘) and the indicated heparin concentrations for 30 minutes at 30° C. Formation of [^3H]acetylated core histones was determined by vacuum filtration of the samples across a nitrocellulose membrane and quantitated by liquid scintillation counting. The data is expressed as the mean % Control ±SD. Background CPM in samples without added enzyme was 5781.25 while [^3H]acetylated histone CPM in samples without heparin were 16484.5 for the pCAF containing samples and 9960.5 for the p300 HAT domain samples.
10 μg core histones were incubated with 0.5 μg pCAF, 0.5 μCi [^3H]acetyl Co A and the indicated concentrations of chondroitin sulfate (filled circles, […]), dextran (open circles, ∘), D-glucosamine (filled squares, ▪), hyaluronic acid (open squares, □) or keratan sulfate (filled triangles, ▴) for 30 minutes at 30° C. 35 μl aliquots of the reaction mixtures were spotted onto nitrocellulose filter in a dot blot apparatus under vacuum to remove unincorporated [^3H]acetyl Co A. The sample wells and filters were washed with 50 mM tris pH 7.6 and the samples were processed for liquid scintillation counting. The data is expressed as the mean % Control ±SD. 100% is equal to the activity in the absence of any additives.
(§2) 10 μg core histones was incubated with 0.5 μg pCAF, 0.5 μCi [^3H]acetyl Co A and the indicated concentrations of N-Desulfated Heparin (filled circles, […]) or Fully O-Desulfated Heparin (open circles, ∘) for 30 minutes at 30° C. 35 μl aliquots of the reaction mixtures were filtered through a nitrocellulose filter in a Bio Dot Apparatus under vacuum. The wells and filter were washed with 50 mM tris pH 7.6 and the membrane was processed for liquid scintillation counting. The data is expressed as the mean % Control ±SD.
FIGS. 15A and 15B show inhibition of pCAF HAT Activity by elastase generated proteoglycans. FIG. 15A, Proteoglycans (PG) were purified from pulmonary fibroblast elastase supernatants using anion exchange chromatographic methods. Heparan sulfate proteoglycan fragments (HSPGf) were generated by treating the PG fraction with 10 mU/ml chondroitinase ABC and repurifying the fragments by anion exchange chromatography. Core histones (10 μg) were incubated with 0.5 μg pCAF, 0.5 μCi [^3H]acetyl Co A and the indicated concentrations of PG (filled squares, ▪) or HSPGf (open squares, □) for 30 minutes at 30° C. 35 μl aliquots of the reaction mixtures were filtered through a nitrocellulose filter and the membrane was processed for liquid scintillation counting. The data is expressed as the mean % Control ±SD. FIG. 15B, Proteoglycans (PG) were purified from another preparation of pulmonary fibroblast elastase supernatants. Free GAG chains (B-PG) were generated by treating the PG fraction with alkaline borohydride and were recovered by anion exchange methods. Core histones (Core histones (10 μg) were incubated with 0.5 μg pCAF, 0.5 μCi [^3H]acetyl Co A and the indicated concentrations of PG (filled squares, ▪) or B-PG (open squares, □) for 30 minutes at 30° C. 35 μl aliquots of the reaction mixtures were filtered through a nitrocellulose filter and the membrane was processed for liquid scintillation counting. The data is expressed as the mean % Control ±SD.
as §2, with “2-O-Desulfated” for “N-Desulfated”, “([…])” for “(filled circles, […])”, “6-O-Desulfated” for “Fully O-Desulfated”, “(∘)” for “(open circles, ∘)”, “±SD. […]” for “±SD.”

p300 HAT domain [2] = target: T1, p300 HAT domain; test: Core histone acetylation filter binding HAT assay, p300; type: biochemical; details: core histones, 30 minutes 30° C
Description: as §1
Heparin-mediated inhibition of HAT activity was determined using two independent methods. The first assay method used a modified protocol to measure the ability of pCAF or p300 to acetylate a synthetic, biotinylated peptide of histone H3 or H4 in the absence and presence of heparin or its derivatives. Commercially available pCAF or p300 HAT domain were added to an iced reactions mixture containing 3 μg biotinylated Histone H3 or H4 peptide, 50 mM tris pH 7.4, 1 mM EDTA with and without the indicated concentrations of heparin. […] The filter was allowed to air dry and the filters were processed and counted using liquid scintillation methods.

[3] = tested on: histone H3 acetylation in pulmonary fibroblasts; test: Histone H3 acetylation in pulmonary fibroblasts by western blot; type: cell-based, neonatal rat; details: 10 μg/ml, 24 h
Description: (§3) Primary neonatal rat fibroblasts and smooth muscle cells were established as described (Foster, J. A. et al., (1990)) and treated with heparin or N-desulfated heparin (10 μg/ml) for 24 h. Total cell extracts (100 μg protein for fibroblasts and 200 μg protein for smooth muscle cells) were generated and subjected to SDS-PAGE followed by electrotransfer to Immobilon membrane. Membranes were incubated with anti-acetylated histone H3 (Upstate) followed by enzyme linked secondary antibody. Bands were visualized with ECL.
Primary cultures of pulmonary fibroblasts were isolated from the lungs of neonatal rats using established protocols (Foster, J. A., et al., (1990) Pulmonary fibroblasts: an in vitro model of emphysema. Regulation of elastin gene expression, J Biol Chem 265, 15544-9). The cells were maintained in Dulbecco's Minimal Essential Medium supplemented with 5% fetal bovine serum, 0.1 mM non-essential amino acid solution, 100 U/ml penicillin and 100 μg/ml streptomycin. The cells were used in second passage for all experiments. Cell number determination was made based upon assay of cellular acid phosphatase levels using a previously established method (Connolly, D. T., et al., (1986) Anal. Biochem. 152, 136-140).
Immobilon membranes were blocked for 1 hour at room temperature with blocking buffer containing 3% milk in tris buffered saline containing 0.1% tween-20 (TBST). […]

[4] = tested on: histone H3 acetylation in aortic smooth muscle cells; test: Histone H3 acetylation in aortic smooth muscle cells by western blot; type: cell-based, neonatal rat; details: 10 μg/ml, 24 h
Description: as §3
Immobilon membranes were blocked for 1 hour at room temperature with blocking buffer containing 3% milk in tris buffered saline containing 0.1% tween-20 (TBST). The blots were rinsed twice with TBST prior to incubation with the primary antibody solutions. The blots were incubated with the appropriate antibody dilution for 1 hour at room temperature or overnight at 4° C. The blots were washed with TBST prior to incubation with the appropriate HRP-linked IgG for 1 hour at room temperature. The blots were washed with TBST prior to chemiluminescence exposure.
We also treated another cell type, aortic smooth muscle cells, with heparin to determine if this response was general or specific to the pulmonary cells.

Compound: 2-O desulfated heparin
HAT inhibitory activity of modified heparins (p300 HAT domain [1]): retained HAT inhibitory activity; also recorded: showed reduced activity when compared to heparin
inhibitory activity on pCAF HAT (pCAF): did not result in significant loss of function

Compound: 6-O desulfated heparin
HAT inhibitory activity of modified heparins (p300 HAT domain [1]): retained HAT inhibitory activity; also recorded: showed reduced activity when compared to heparin
inhibitory activity on pCAF HAT (pCAF): did not result in significant loss of function

Compound: CC(=O)N[C@H]1C(O)O[C@H](CO)[C@@H](O)[C@@H]1O (stereo partly drawn) [N-acetyl glucosamine, N-Acetyl-D-glucosamine, reference compound]
inhibitory activity on pCAF HAT (pCAF): none of the monosaccharides showed any significant inhibitory activity

Compound: N[C@H]1C(O)O[C@H](CO)[C@@H](O)[C@@H]1O (stereo partly drawn) [glucosamine, D-glucosamine, reference compound]
inhibitory activity on pCAF HAT (pCAF): none of the monosaccharides showed any significant inhibitory activity

Compound: O=C[C@H](O)[C@@H](O)[C@H](O)[C@H](O)C(=O)O [glucuronic acid, reference compound]
inhibitory activity on pCAF HAT (pCAF): none of the monosaccharides showed any significant inhibitory activity

HAT inhibitory activity of modified heparins (p300 HAT domain [1]): nearly eliminated HAT (p300) inhibition
50% inhibition (IC50) (pCAF): ~20 µg/mL
Compound: N-desulfated heparin

inhibitory activity on pCAF HAT (pCAF): showed inhibition
Compound: chondroitin sulfate

inhibitory activity on pCAF HAT (pCAF): did not show any inhibitory activity
Compound: dextran [reference compound]

inhibition of HAT activity (p300 HAT domain [1]; 34 μg/mL): almost complete inhibition
IC50 (p300 HAT domain [1]; molecular weight ~15 kD, read-out: IC50 for HAT activity, molar equivalent): ~1100 nM
50% inhibition (IC50) (p300 HAT domain [2]): ~5 µg/mL
50% inhibition (IC50) (pCAF): ~7 µg/mL
Compound: heparin [reference compound]
level of histone H3 acetylation [3]: reduced histone H3 actetylation slightly
level of histone H3 acetylation [4]: significant reduction of histone H3 acetylation

effectiveness relative to heparin and other GAGs (pCAF): the least effective
inhibitory activity on pCAF HAT (pCAF): showed inhibition
Compound: hyaluronic acid

inhibitory activity on pCAF HAT (pCAF): showed inhibition
Compound: keratan sulfate
